Test results reported in patent publication US20130287918A1, “MICROBICIDAL COMPOSITION” (DUPONT NUTRITION DIOSCIENCES APS, priority 2010, published 2013).

Columns and labels:
Assay type in all cases: cell-based
[1] = system: native flora of Lactic acid bacteria; test: Salsa sauce fresh challenge study, native lactic acid bacteria on MRS-agar; details: for Cell counts on MRS-agar (native Lactic acid bacteria): Salsa sauce 4° C., FP1000-D1 1%, FP1000-D2 1%, MG200 1%, Potassium Sorbate 0.1%
Method: (§1) The viscous products were thoroughly mixed (2 minutes) within 10 minutes of inoculation to ensure that the inoculum was evenly distributed throughout the product. One sample remained un-inoculated and was used as negative control to monitor the native contamination flora. All samples were incubated in the dark at chilled temperature (4° C.) and assayed for yeast, plated on an appropriate yeast medium, until confirmed failure (≧1.0E+06 CFU/g) or until visible mould growth, respectively. In parallel, the growth of lactic acid bacteria and total cell count were monitored on MRS and PCA in all the batches and the non-inoculated blind, respectively.
The Salsa sauces were assayed at time zero, day 3, day 7, day 14 and were plated bi-weekly thereafter until day 92. CFU/g was detected for 3 samples from each batch inoculated with yeast. Before each sampling (closed jar), the sample was thoroughly mixed, 10 gram sample were aseptically pulled from each jar and diluted with peptone water. Each sample was stomached (1 min, normal setting) plated in duplicate onto YGC agar (VWR) and MRS (VWR), and incubated at 25° C. for 5 days and 37° C. for 3 days, respectively.

[2] = system: pool of 4 yeast species (Candida tropicalis DCS 604, Zygosaccharomyces bailii DCS 1167 and DCS 1172, Pichia spp DCS 1175); test: BBQ sauce challenge study, yeast count on YGC agar; details: for Cell counts on YGC-agar (yeast growth): BBQ sauce 20° C., Potassium Sorbate 0.1%
Method: Samples of the BBQ sauce (formula in table 9) with and without the experimental blend were produced in the Danisco Culinary Application Laboratory, Brabrand.
Each batch was split (scheme table 8) in probes of 90 gram and placed in sterile jars. 42 probes of each batch were inoculated with the desired level of yeast and 5 probes of each batch were inoculated with mould spores, respectively at a targeted inoculation rate of 500 to 1000 CFU/g.
as §1, with “incubated” for “incubated in the dark”, “ambient” for “chilled”, “(20°” for “(4°”
In total 8 strains, from available from Danisco's Culture Collection (DCS) (Danisco A/S, Brabrand, Denmark) were employed as one yeast and one mould pool in the respective BBQ sauce. Originally, they were isolated e.g. from spoiled ketchup, mayonnaise. Salsa dressing or obtained from official culture collections such as DMSZ.
Before each experiment, a stock culture of each yeast, maintained at −86° C. in suitable broth containing glycerol 50% (v/v), was propagated through two consecutive growth cycles in suitable media (YGC-agar (VWR) pH 5.1+0.2; YM Broth (Becton, Dickinson and company) at pH 6.0±0.2 at and temperature (25° C.). The overnight cultures are diluted in saline solution to obtain working cultures. A cocktail of the yeasts was generated by adding equal cell counts of each culture into a sterile container and mixed appropriately. The yeast cocktail was diluted and inoculated into the product in order to achieve the final desired concentration. Pool counts were verified via plate count.
The BBQ sauces were assayed at time zero, day 2, day 5, day 12, weekly until week 10 (day 68) and bi-weekly thereafter until week 19 (day 131). CFU/g was detected for 3 samples from each batch inoculated with yeast. Before each sampling (closed jar), the sample was thoroughly mixed. 10 gram sample were aseptically pulled from each jar and diluted with peptone water. Each sample was stomached (1 min, normal setting) plated in duplicate onto YGC agar (VWR) and MRS (VWR), and incubated at 25° C. for 5 days and 37° C. for 3 days, respectively.

[3] = system: pool of 4 mould species (Penicillium sp DCS 1380, Aspergillus versicolor DCS 1069, Aspergillus parasiticus DCS 709, Mucor sp DCS 1140); test: Salsa sauce fresh challenge study, mould growth; details: Salsa sauce 4° C.; blends 1%
Method: Each batch was split (scheme table 15) in probes of 90 gram and placed in sterile jars. 21 probes of each batch were inoculated with the desired level of yeast and 5 probes of each batch were inoculated with mould spores, respectively at a targeted inoculation rate of 300 to 800 CFU/g.
as §1
Mould spores were prepared as follows: approx. 2 ml of sterile demineralised water was used to wash the spores off an out-grown mould cultivar (minimum 5 day old plate). This suspension is transferred to a sterile container. Pool counts were verified via plate count.
5 samples from each batch inoculated with mould were visually analysed for mould growth.

## C/C=C/C=C/C(=O)[O-].[K+] [Potassium Sorbate, potassium sorbate]
[1]; Salsa sauce, potassium sorbate 0.1%
  time after which no more colonies were detected on MRS-agar: 42 days
[1]; day 0
  Cell counts on MRS-agar (native Lactic acid bacteria): 4.75E+02
[1]; day 2
  Cell counts on MRS-agar (native Lactic acid bacteria): 1.50E+03
[1]; day 5
  Cell counts on MRS-agar (native Lactic acid bacteria): 1.40E+02
[1]; day 7
  Cell counts on MRS-agar (native Lactic acid bacteria): 1.30E+03
[1]; day 14
  Cell counts on MRS-agar (native Lactic acid bacteria): 5.38E+02
[1]; day 28
  Cell counts on MRS-agar (native Lactic acid bacteria): 4.30E+01
[1]; day 41
  Cell counts on MRS-agar (native Lactic acid bacteria): <1.00E+01
[1]; day 55
  Cell counts on MRS-agar (native Lactic acid bacteria): <1.00E+01
[1]; day 93
  Cell counts on MRS-agar (native Lactic acid bacteria): <1.00E+01
[2]; BBQ sauce, YM10 1% and 0.5%, potassium sorbate
  initial reduction of the inoculated cell load: 3 log
[2]; day 0, YM10 1%, MG200 1%, Competitor product 1.25%
  Cell counts on YGC-agar (yeast growth): 6.07E+02 CFU/g
[2]; day 2, YM10 1%, MG200 1%, Competitor product 1.25%
  Cell counts on YGC-agar (yeast growth): 1.47E+02 CFU/g
[2]; day 5, YM10 1%, MG200 1%, Competitor product 1.25%
  Cell counts on YGC-agar (yeast growth): 2.50E+01 CFU/g
[2]; day 12, YM10 1%, MG200 1%, Competitor product 1.25%
  Cell counts on YGC-agar (yeast growth): 1.00E+00 CFU/g
[2]; day 19, YM10 1%, MG200 1%, Competitor product 1.25%
  Cell counts on YGC-agar (yeast growth): 1.00E+00 CFU/g
[2]; day 26, YM10 1%, MG200 1%, Competitor product 1.25%
  Cell counts on YGC-agar (yeast growth): 1.00E+00 CFU/g
[2]; day 41, YM10 1%, MG200 1%, Competitor product 1.25%
  Cell counts on YGC-agar (yeast growth): 1.00E+00 CFU/g
[2]; day 49
  Cell counts on YGC-agar (yeast growth): 1.00E+00 CFU/g
[2]; day 55
  Cell counts on YGC-agar (yeast growth): 1.00E+00 CFU/g
[2]; day 68
  Cell counts on YGC-agar (yeast growth): 1.00E+00 CFU/g
[2]; day 82
  Cell counts on YGC-agar (yeast growth): 1.00E+00 CFU/g
[2]; day 104
  Cell counts on YGC-agar (yeast growth): 1.00E+00 CFU/g
[2]; day 117
  Cell counts on YGC-agar (yeast growth): 1.00E+00 CFU/g
[2]; day 131
  Cell counts on YGC-agar (yeast growth): 2.50E+01 CFU/g
[3]
  control of mould outgrowth (plate count in yeast inoculated samples): 12 weeks
